Measurements from patent publication US20250243218A1, “NOVEL CARBAMATE COMPOUND AND USE THEREOF” (CHENGDU SHIBEIKANG BIOMEDICAL TECHNOLOGY CO., LTD., priority 2022, published 2025).
Counter-ions that a name gives are not always drawn.

Experiments:
[1] = tested on: ADP-induced platelet aggregation in rats; test: Antiplatelet aggregation effect: ADP-induced platelet aggregation in PRP of rats after iv administration; format: in vivo; conditions: single iv at the same molar dose, blood 3 h after administration, ADP final 20 μM
Text: 1. Test objective: Evaluation and comparison of the antiplatelet aggregation treatment effect of each compound after administration at the same molar amount
70 rats were randomly and evenly grouped into 7 groups, i.e., solvent control group, comparative example 1 (2-Oxo-clopidogrel) group, comparative example 2 (Vicagrel) group, compound 1 group, compound 2 group, compound 7 group and compound 8 group.
Rats were anesthetized by intraperitoneal injection of 1.5% sodium pentobarbital.
The anesthetized animals were transferred to an operating platform.
The rats were injected with anesthetic, and fixed on the operating platform in a supine position after the whole body of the rat became soft. After routine disinfection, the abdomen of the rat was incised along the abdominal midline using surgical scissors to open the abdominal cavity. The adipose tissue around the blood vessels was gently separated with a small forceps, and the excess adipose tissue covering the blood vessels was then wiped and removed with the cotton ball to make the blood vessels clearly visible (the abdominal aorta is located anterior to the vertebral column, and the abdominal vein appears thicker and darker in color than the abdominal aorta). The blood vessel was first fixed to prevent it from moving as much as possible. The left thumb and index finger fixed the adipose tissue and other organs on both sides of the blood vessel, while the ring finger pressed on the blood vessel at the upper end of the needle insertion point to lower the blood pressure, which can prevent blood spurting. The puncture needle was held with the right hand, with the bevel of the needle tip facing downward. The needle was inserted at an angle of about 30 degrees and advanced towards the heart to a suitable depth of about 5 mm. Once the blood had started to enter the needle via its tip, the other end of the blood collection needle was inserted into the vacuum tube. After the insertion of needle, the needle tip could be clamped with a hemostatic clip to prevent it from puncturing the blood vessel if the rat struggled due to insufficient anesthesia.
Three hours after the administration, the rats were anesthetized with sodium pentobarbital. Then blood was collected from the abdominal aorta, added with 3.8% sodium citrate (1:9) as an anticoagulant, mixed evenly and centrifuged at 200 g for 10 min. The supernatant was harvested to obtain the platelet-rich plasma (PRP), and the residual plasma was then centrifuged at 1600 g for 15 min to obtain the resulting supernatant as platelet-poor plasma (PPP).
Platelet aggregation rate was measured using a platelet aggregometer (model: Agg RAM, Helena, USA). The PPPs corresponding to the PRPs to be tested in each channel were first used to correct the light transmission, and the PPPs were removed after the correction. A cuvette added with 225 μl of PRP to be tested was then placed in each channel, and added with a stirrer, then ADP (with a final concentration of 20 μM). The platelet aggregometer immediately began to measure the platelet aggregation rate.

[2] = Pharmacokinetic study in SD rats, 2-Oxo-clopidogrel in plasma by LC/MS/MS; format: in vivo; conditions: SD, rat, in vivo
Text: After being administered via single gavage at the same molar amount, the pharmacokinetic characteristics of each compound were investigated, and the main pharmacokinetic parameters were compared.
Each test compound was accurately weighed separately into a clean drug container, dissolved with appropriate amount of Solutol, shaken by vortex, added with purified water, ultrasonicated, and shaken by vortex until the compound was completely dissolved. All the formulations were freshly prepared on the day of administration.
Thirty healthy adult SD rats were administered via gavage.
Grouping and Fasting: SD rats were randomly grouped, with 6 rats per group, and administered with the corresponding compounds via gavage according to Table 3.
Sample Collection and Processing: 0.2 ml of blood was collected at different time points of before (0 h) and 5 min, 15 min, 30 min, 1 h, 2 h, 4 h, 8 h, and 24 h after the administration. After the anticoagulation with EDTA-K2 was completed, the blood was centrifuged at 4° C. for 5 min, and then the plasma was separated and stored at −80° C. for later measurement.
Measurement: The blood drug concentration of 2-Oxo-clopidogrel in all PK plasma samples was measured by LC/MS/MS method, and the pharmacokinetic parameters of individual compounds were calculated by using software WinNonlin 7.2.

Solubility study = format: physicochemical; conditions: 25° C. to 30° C.
Experimental: Samples of the example compound 2 and comparative example 2 (Vicagrel) were accurately weighed. Under the condition of 25° C. to 30° C., 1 ml of physiological saline and 1 ml of a buffer (pH 1.2) were taken, and added with 10 mg of each compound, respectively. The compound 2 of the present disclosure had excellent solubility, which can satisfy the demand for the formulation into an injection with an effective concentration in clinical, while the solubility of the comparative example 2 was extremely low and it cannot satisfy the demand for injection, and the addition of additional solubilizer may pose potential safety risks.

[3] = Influencing factor test (high temperature, high humidity, light); format: physicochemical; conditions: high temperature (60° C.), two days
Experimental: Test Methods: The samples of the compound 2 and comparative example 2 (Vicagrel) were weighed and placed in weighing bottles, respectively, and the weighing bottles were placed under the conditions of high temperature (60° C.), high humidity (RH 80%), and light (5000 Lux), respectively.

hERG potassium channel = target: T1, hERG potassium channel (Homo sapiens, UniProt Q12809); test: cell-based; conditions: IC50 (μM), inhibition of cardiac hERG potassium channel, manual patch-clamp, stably overexpressed hERG channel
T1 construct: expressed in transfected cells
T1 sequence (Q12809 whole entry): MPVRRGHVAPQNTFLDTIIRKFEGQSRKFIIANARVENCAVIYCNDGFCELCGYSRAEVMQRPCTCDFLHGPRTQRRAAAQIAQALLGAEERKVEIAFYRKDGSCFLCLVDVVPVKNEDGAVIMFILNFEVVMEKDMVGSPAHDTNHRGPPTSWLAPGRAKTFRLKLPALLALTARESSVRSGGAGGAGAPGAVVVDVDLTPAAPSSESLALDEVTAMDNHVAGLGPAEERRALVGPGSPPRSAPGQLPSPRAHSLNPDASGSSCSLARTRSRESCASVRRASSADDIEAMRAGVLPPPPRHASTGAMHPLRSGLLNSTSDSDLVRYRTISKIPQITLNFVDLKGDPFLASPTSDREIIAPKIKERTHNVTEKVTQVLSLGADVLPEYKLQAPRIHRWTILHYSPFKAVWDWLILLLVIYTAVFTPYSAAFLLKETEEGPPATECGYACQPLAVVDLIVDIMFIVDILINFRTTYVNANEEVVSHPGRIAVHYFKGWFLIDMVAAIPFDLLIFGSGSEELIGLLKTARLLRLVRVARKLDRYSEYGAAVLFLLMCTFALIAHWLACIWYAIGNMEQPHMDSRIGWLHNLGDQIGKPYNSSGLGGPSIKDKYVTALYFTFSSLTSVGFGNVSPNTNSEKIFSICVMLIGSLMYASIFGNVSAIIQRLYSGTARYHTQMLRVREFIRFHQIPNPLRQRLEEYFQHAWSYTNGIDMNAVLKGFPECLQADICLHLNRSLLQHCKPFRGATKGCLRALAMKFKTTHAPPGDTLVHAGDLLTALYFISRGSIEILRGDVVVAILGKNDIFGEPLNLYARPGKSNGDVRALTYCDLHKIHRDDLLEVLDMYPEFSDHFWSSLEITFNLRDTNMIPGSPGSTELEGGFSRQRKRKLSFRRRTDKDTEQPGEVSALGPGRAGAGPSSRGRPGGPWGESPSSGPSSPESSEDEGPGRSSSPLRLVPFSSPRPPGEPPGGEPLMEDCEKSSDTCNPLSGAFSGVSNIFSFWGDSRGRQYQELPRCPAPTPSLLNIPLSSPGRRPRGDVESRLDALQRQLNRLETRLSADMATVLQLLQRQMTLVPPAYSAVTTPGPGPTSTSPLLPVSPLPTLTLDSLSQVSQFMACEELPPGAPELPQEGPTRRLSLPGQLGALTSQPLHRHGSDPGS
Text: Test Example 2: Effect of Compounds on Current in Stably Overexpressed hERG Channel

Row | Compound | Platelet aggregation rate (%) ([1]; solvent control 76.06 ± 3.29) | IC50 (hERG potassium channel) | also measured
1 | COC(=O)[C@H](c1ccccc1Cl)N1CCC2SC(=O)C=C2C1 (stereo partly shown) [Comparative Example 1, 2-Oxo-clopidogrel, reference compound] | 31.32 ± 6.07 ^ % |  | Platelet aggregation rate (%) ([1]; solvent control 76.06 ± 3.29, listed as comparative example 1): 31.32±6.07%; AUC0-last [2]: 60.15 ± 14.22 ng·h/mL; Cmax [2]: 38.48 ± 13.51 ng/mL; T1/2 [2]: 70.8 ± 12.6 min; Tmax [2]: 37.8 ± 9 min
2 | COC(=O)[C@H](c1ccccc1Cl)N1CCc2sc(OC(C)=O)cc2C1 [Comparative Example 2, Vicagrel, reference compound] | 39.32 ± 12.38 ^ % |  | Platelet aggregation rate (%) ([1]; solvent control 76.06 ± 3.29, listed as comparative example 2): 39.32±12.38%; Solubility, pH 1.2 buffer (Solubility study; 10 mg compound added to 1 ml buffer (pH 1.2)): < 0.5 mg/mL; Solubility, Physiological saline(1 ml) (Solubility study; 10 mg compound added to 1 ml physiological saline): insoluble; change in appearance and characteristics [3]: from a white solid to a yellowish-brown oil
3 | COC(=O)[C@H](c1ccccc1Cl)N1CCc2sc(OC(=O)N3CCN(C)CC3)cc2C1 [Compound 1, (S)-5-(1-(2-chlorophenyl)-2-methoxy-2-oxyethyl)-4,5,6,7-tetrahydrothieno[3,2-c]pyridin-2-yl 4-methylpiperazine-1-carboxylate] | 24.08 ± 6.00 % | 20.5 µM | Platelet aggregation rate (%) ([1]; solvent control 76.06 ± 3.29, listed as compound 1): 24.08±6.00%
4 | CCCN1CCN(C(=O)Oc2cc3c(s2)CCN([C@H](C(=O)OC)c2ccccc2Cl)C3)CC1 [Compound 3, (S)-5-(1-(2-chlorophenyl)-2-methoxy-2-oxyethyl)-4,5,6,7-t etrahydrothieno[3,2-c]pyridin-2-yl-4-propylpiperazine-1-carboxylate] |  | 15.2 µM | 
5 | COC(=O)[C@H](c1ccccc1Cl)N1CCc2sc(OC(=O)N3CCN(C4CC4)CC3)cc2C1 [Compound 4, (S)-5-(1-(2-chlorophenyl)-2-methoxy-2-oxyethyl)-4,5,6,7-tetrahydrothieno[3,2-c]pyridin-2-yl 4-cyclopropylpiperazine-1-carboxylate] |  | 16.4 µM | 
6 | COC(=O)[C@H](c1ccccc1Cl)N1CCc2sc(OC(=O)N3CCN(C4CCCC4)CC3)cc2C1 [Compound 5, (S)-5-(1-(2-chlorophenyl)-2-methoxy-2-oxyethyl)-4,5,6,7-tetrahydrothieno[3,2-c]pyridin-2-yl 4-cyclopentylpiperazine-1-carboxylate] |  | 15.8 µM | 
7 | COC(=O)[C@H](c1ccccc1Cl)N1CCc2sc(OC(=O)N3CCN(C4CCCCC4)CC3)cc2C1 [Compound 6, (S)-5-(1-(2-chlorophenyl)-2-methoxy-2-oxyethyl)-4,5,6,7-tetrahydrothieno[3,2-c]pyridin-2-yl 4-cyclohexylpiperazine-1-carboxylate] |  | 14.9 µM | 
8 | COC(=O)[C@H](c1ccccc1Cl)N1CCc2sc(OC(=O)N3CCC(N4CCCCC4)CC3)cc2C1 [Compound 7, (S)-5-(1-(2-chlorophenyl)-2-methoxy-2-oxyethyl)-4,5,6,7-tetrahydrothieno[3,2-c]pyridin-2-yl [1,4′-bipiperidine]-1′-carboxylate] | 27.59 ± 6.99 % | 25.4 µM | Platelet aggregation rate (%) ([1]; solvent control 76.06 ± 3.29, listed as compound 7): 27.59±6.99%
9 | COC(=O)[C@H](c1ccccc1Cl)N1CCc2sc(OC(=O)N3CCC(N4CCCCC4)CC3)cc2C1 [Compound 8, (S)-5-(1-(2-chlorophenyl)-2-methoxy-2-oxyethyl)-4,5,6,7-t etrahydrothieno[3,2-c]pyridin-2-yl [1,4′-bipiperidine]-1′-carboxylate hydrochloride] |  | 27.3 µM | Platelet aggregation rate (%) ([1]; solvent control 76.06 ± 3.29, hydrochloride): 27.13 ± 6.50 %
10 | COC(=O)[C@H](c1ccccc1Cl)N1CCc2sc(OC(=O)N3CCC(C4CCN(C)C4)CC3)cc2C1 (stereo partly drawn) [Compound 9, 5-((S)-1-(2-chlorophenyl)-2-methoxy-2-oxyethyl)-4,5,6,7-tetrahydrothieno[3,2-c]pyridin-2-yl-4-(1-methylpyrrolidine-3-yl) piperidine-1-carboxylate] |  | 27.2 µM | 
11 | COC(=O)[C@H](c1ccccc1Cl)N1CCc2sc(OC(=O)N3CCC(N4CCN(C)CC4)CC3)cc2C1 [Compound 10, (S)-5-(1-(2-chlorophenyl)-2-methoxy-2-oxyethyl)-4,5,6,7-tetrahydrothieno[3,2-c]pyridin-2-yl-4-(4-methylpiperazine-1-yl) piperidine-1-carboxylate] |  | 25.9 µM | 
